In one assay the target is T1, Aβ1-42 (Homo sapiens, UniProt P05067).
T1 construct: an aliquot of Aβ1-42 was dissolved in anhydrous DMSO
As to the kind of experiment: ADDLs formation dot-blot assay (Aβ oligomerization). It counts as biochemical. Particulars: for IC50: purified derivatives, Aβ1-42 10 nM, dot-blot densitometry at 4 hours, read-out: IC50, inhibition of ADDLs formation. The method, then:
Using a high throughput dot blot assay recently developed for measuring Aβ oligomerization (L. Chang et al., J. Neuromol. Chem., 20, 305-313 (2003)), various beta-CD derivatives were evaluated for an ability to inhibit oligomerization of Aβ1-42. beta-CD (1) is a cyclic glucopyranose oligomer (FIG. 1), whose shape is reminiscent of a lamp-shade, frequently depicted schematically as compound 2 in FIG. 1. Actually three different hydroxyls are present in each sugar in the beta-CD molecule, which can be readily differentiated chemically. Additionally, no plane of symmetry exists in the molecule because the cyclic α-1,4-linkage forms a torus. Consequently, the primary hydroxyl groups are not equivalent when substituted. The end result of these structural features is that symmetry operations are not possible with different substitution patterns and each pattern represents a different compound. […]
ADDLs assay The assays were performed as set forth in Wang et al., J. Med. Chem., 47(13), pages 3329-3333 (2003). […] Time-dependent ADDLs formation was monitored by diluting 4 μl of […] Aβ/DMSO solutions with 196 μl of ice-cold F12 medium to 100 nM and 10 nM Aβ, respectively. […] These F12/CD solutions then were used in ADDLs assays, and the oligomer formation monitored as described. […]
ADDLs Western blot/dot blot assays For Western blots, samples were subjected to SDS-PAGE on 16.5% Tris-tricine gels at 100V […] for 1.5 to 2 hours. […] Visualization of proteins with chemiluminescent reagents was recorded by exposure to ECL film (Amersham-Pharmacia).
Dose response curves Dose response curves were prepared by performing the aforementioned dot-blot assays with Aβ1-42 (10 nM) in the presence of purified per-6-substituted-beta-CDs at the indicated concentrations. The response was determined for the dots at 4 hours using Kodak 1D imaging software and reported as log dose response of the ratio of beta-CD to Aβ1-42 as shown in FIG. 5.

The subject of the next assay is PC12 cells. The conditions noted are these: Camilleri et al. 1994; cited from earlier work.

T1 sequence (P05067 672-713 limits assumed): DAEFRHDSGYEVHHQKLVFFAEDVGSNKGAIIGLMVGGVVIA

Regarding `OC[C@H]1O[C@@H]2O[C@H]3[C@H](O)[C@@H](O)[C@@H](O[C@H]4[C@H](O)[C@@H](O)[C@@H](O[C@H]5[C@H](O)[C@@H](O)[C@@H](O[C@H]6[C@H](O)[C@@H](O)[C@@H](O[C@H]7[C@H](O)[C@@H](O)[C@@H](O[C@H]8[C@H](O)[C@@H](O)[C@@H](O[C@H]1[C@H](O)[C@H]2O)O[C@@H]8CO)O[C@@H]7CO)O[C@@H]6CO)O[C@@H]5CO)O[C@@H]4CO)O[C@@H]3CO` [beta-CD, beta-cyclodextrin], on Aβ1-42 (corresponding concentrations, same conditions as the purified derivatives), the “inhibitory activity in ADDLs formation assay (qualitative)” value is “did not show any detectable inhibitory activity”. Also, in the assay with PC12 cells, the “effect on neurotoxic effects of Aβ1-40” value is reported as “substantially diminishes the neurotoxic effects”.
In general, IC50 refers to the concentration at which inhibition is half-maximal. As for `OC1C2OC(CNCc3ccco3)C(OC3OC(CNCc4ccco4)C(OC4OC(CNCc5ccco5)C(OC5OC(CNCc6ccco6)C(OC6OC(CNCc7ccco7)C(OC7OC(CNCc8ccco8)C(OC8OC(CNCc9ccco9)C(O2)C(O)C8O)C(O)C7O)C(O)C6O)C(O)C5O)C(O)C4O)C(O)C3O)C1O` (stereo not drawn) [4a, per-furfurylamino-6-deoxy-beta-CD], the IC50 on Aβ1-42 worked out at 540 nM.
Turning to `OC1C2OC(CNCc3ccccc3)C(OC3OC(CNCc4ccccc4)C(OC4OC(CNCc5ccccc5)C(OC5OC(CNCc6ccccc6)C(OC6OC(CNCc7ccccc7)C(OC7OC(CNCc8ccccc8)C(OC8OC(CNCc9ccccc9)C(O2)C(O)C8O)C(O)C7O)C(O)C6O)C(O)C5O)C(O)C4O)C(O)C3O)C1O` (stereo not drawn) [5a, per-benzylamino-6-deoxy-beta-CD], the IC50 at Aβ1-42 amounted to 460 nM.
